In patent US12673944B2, “Compounds having inhibitory activity against glucosylceramide synthase or pharmaceutically acceptable salt thereof, processes for preparing the same, and pharmaceutical compositions comprising the same” (YUHAN CORPORATION, priority 2019, dated 2026):
Like-named read-outs stand apart in the source and are kept apart here.

How the values were obtained:
[1] = target: T1, glucosylceramide synthase (GCS) (Homo sapiens, UniProt Q16739); experiment: GCS enzyme inhibition assay (A549 cell lysate, NBD C6-ceramide, HPLC fluorescence); type: biochemical; conditions: inhibitory activity against GCS, 37° C., 90 minutes
T1 construct: The obtained supernatant was used; host or cells: A549 cells (lysate supernatant after sonication)
T1 sequence (Q16739 1-394): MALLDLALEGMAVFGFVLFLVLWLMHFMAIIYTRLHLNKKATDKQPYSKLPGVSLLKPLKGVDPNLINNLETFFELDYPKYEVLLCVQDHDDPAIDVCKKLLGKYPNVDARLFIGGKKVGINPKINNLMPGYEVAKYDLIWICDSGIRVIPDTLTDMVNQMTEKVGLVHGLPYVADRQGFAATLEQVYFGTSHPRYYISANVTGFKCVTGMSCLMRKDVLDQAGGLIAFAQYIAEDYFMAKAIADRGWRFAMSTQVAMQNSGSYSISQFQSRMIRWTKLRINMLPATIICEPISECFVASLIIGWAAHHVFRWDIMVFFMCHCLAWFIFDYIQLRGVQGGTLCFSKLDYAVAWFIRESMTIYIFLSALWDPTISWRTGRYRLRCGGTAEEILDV
Procedure, shortened: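 Percent GCS activity was derived from the GlcCer share of Cer plus GlcCer areas, scaled from ibiglustat (0%) to DMSO (100%). Enzyme came from sonicated A549 lysate in 50 mM HEPES pH 7.3; 90 min incubation at 37° C, chloroform/methanol stop and extraction.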

[2] = system: GM1 production in Jurkat cells; experiment: cells; type: cell-based

Row | SMILES | IC50 [1] [nM] | IC50 ([2]; Homo sapiens, Jurkat, 72 h) [nM] | IC50 [2] [nM]
1 | O=C(NC1CCOc2cc(-c3cccc(S(=O)(=O)N4CCCC4)c3)ccc21)O[C@@H]1CN2CCC1CC2 (stereo partly drawn) [Example 60, (S)-quinuclidin-3-yl (7-(3-(pyrrolidin-1-ylsulfonyl)phenyl)chroman-4-yl)carbamate] | 2.39 | 16.5 | 
2 | CCOc1ccccc1-c1ccc2c(c1)OCCC2NC(=O)O[C@@H]1CN2CCC1CC2 (stereo partly drawn) [Example 20, (S)-quinuclidin-3-yl (7-(2-ethoxyphenyl)chroman-4-yl)carbamate] | 2.86 | 19.1 | 
3 | CC(C)(C)c1cccc(-c2ccc3c(c2)COCC3NC(=O)O[C@@H]2CN3CCC2CC3)c1 (stereo partly drawn) [Example 312, (S)-quinuclidin-3-yl (7-(3-(tert-butyl)phenyl)isochroman-4-yl)carbamate] | 5.62 | 28.8 | 
4 | C=CCc1ccccc1-c1ccc2c(c1)OCC(C)(C)C2NC(=O)O[C@@H]1CN2CCC1CC2 (stereo partly drawn) [Example 279, (S)-quinuclidin-3-yl (7-(2-allylphenyl)-3,3-dimethylchroman-4-yl)carbamate] | 0.73 | 6.2 | 
5 | CC1(C)COc2cc(-c3ccsc3)ccc2C1NC(=O)O[C@@H]1CN2CCC1CC2 (stereo partly drawn) [Example 187, (S)-quinuclidin-3-yl (3,3-dimethyl-7-(thiophen-3-yl)chroman-4-yl)carbamate] | 0.32 | 2.06 | 
6 | CC1(C)COc2cc(-c3ccccc3C(F)(F)F)ccc2C1NC(=O)O[C@@H]1CN2CCC1CC2 (stereo partly drawn) [Example 185, (S)-quinuclidin-3-yl (3,3-dimethyl-7-(2-(trifluoromethyl)phenyl)chroman-4-yl)carbamate] | 0.67 | 0.98 | 
7 | COc1cccc(-c2ccc3c(c2)OCCC3NC(=O)O[C@@H]2CN3CCC2CC3)c1 (stereo partly drawn) [Example 18, (S)-quinuclidin-3-yl (7-(3-methoxyphenyl)chroman-4-yl)carbamate] | 1.54 | 6.98 | 
8 | COc1cncc(-c2ccc3c(c2)OCCC3NC(=O)O[C@@H]2CN3CCC2CC3)c1 (stereo partly drawn) [Example 79, (S)-quinuclidin-3-yl (7-(5-methoxypyridin-3-yl)chroman-4-yl)carbamate] | 2.57 | 33.4 | 
9 | CCc1ccc(-c2ccc3c(c2)OCC(C)(C)C3NC(=O)O[C@@H]2CN3CCC2CC3)cc1 (stereo partly drawn) [Example 273, (S)-quinuclidin-3-yl (7-(4-ethylphenyl)-3,3-dimethylchroman-4-yl)carbamate] | 0.46 | 2.9 | 
10 | CN1CCC(NC(=O)O[C@@H]2CN3CCC2CC3)c2ccc(-c3cccc(C(C)(C)C)c3)cc21 (stereo partly drawn) [Example 314, (S)-quinuclidin-3-yl (7-(3-(tert-butyl)phenyl)-1-methyl-1,2,3,4-tetrahydroquinolin-4-yl)carbamate] | 6.47 | 56.3 | 
11 | CC1(C)COc2cc(-c3ccc(C4CC4)nc3)ccc2C1NC(=O)O[C@@H]1CN2CCC1CC2 (stereo partly drawn) [Example 250, (S)-quinuclidin-3-yl (7-(6-cyclopropylpyridin-3-yl)-3,3-dimethylchroman-4-yl)carbamate] | 0.35 | 5.4 | 
12 | CC1(C)COc2cc(-c3ccc4c(c3)OCCCO4)ccc2C1NC(=O)O[C@@H]1CN2CCC1CC2 (stereo partly drawn) [Example 190, (S)-quinuclidin-3-yl (7-(3,4-dihydro-2H-benzo[b][1,4]dioxepin-7-yl)-3,3-dimethylchroman-4-yl)carbamate] | 0.29 | 0.03 | 
13 | O=C(NC1CCOc2cc(-c3ccc4cc[nH]c4c3)ccc21)O[C@@H]1CN2CCC1CC2 (stereo partly drawn) [Example 45, (S)-quinuclidin-3-yl (7-(1H-indol-6-yl)chroman-4-yl)carbamate] | 4.13 | 26.2 | 
14 | O=C(NC1CCOc2ccc(-c3ccc(Cl)cc3)cc21)O[C@@H]1CN2CCC1CC2 (stereo partly drawn) [Example 88, (S)-quinuclidin-3-yl (6-(4-chlorophenyl)chroman-4-yl)carbamate] | 9.41 | 160 | 
15 | COc1ccc(-c2ccc3c(c2)OCC(C)(C)C3NC(=O)O[C@@H]2CN3CCC2CC3)cc1OC (stereo partly drawn) [Example 128, (S)-quinuclidin-3-yl (7-(3,4-dimethoxyphenyl)-3,3-dimethylchroman-4-yl)carbamate] | 2.84 | 23.2 | 
16 | CC1(C)COc2cc(-c3ccc(OCC(F)(F)F)nc3)ccc2C1NC(=O)O[C@@H]1CN2CCC1CC2 (stereo partly drawn) [Example 144, (S)-quinuclidin-3-yl (3,3-dimethyl-7-(6-(2,2,2-trifluoroethoxy)pyridin-3-yl)chroman-4-yl)carbamate] | 0.17 | 1.2 | 

Row | SMILES | IC50 [1] [nM] | IC50 ([2]; Homo sapiens, Jurkat, 72 h) [nM] | IC50 [2] [nM]
17 | COc1ccccc1-c1ccc2c(c1)OCCC2NC(=O)O[C@@H]1CN2CCC1CC2 (stereo partly drawn) [Example 17, (S)-quinuclidin-3-yl (7-(2-methoxyphenyl)chroman-4-yl)carbamate] | 1.41 | 5.5 | 
18 | CCOc1ccc(-c2cc3c(cc2F)C(NC(=O)O[C@@H]2CN4CCC2CC4)C(C)(C)CO3)cc1 (stereo partly drawn) [Example 337, (S)-quinuclidin-3-yl (7-(4-ethoxyphenyl)-6-fluoro-3,3-dimethylchroman-4-yl)carbamate] | 0.23 | 1.2 | 
19 | COc1ccc(Cl)c(-c2cc3c(cc2OC)C(NC(=O)O[C@@H]2CN4CCC2CC4)C(C)(C)CO3)c1 (stereo partly drawn) [Example 359, (S)-quinuclidin-3-yl (7-(2-chloro-5-methoxyphenyl)-6-methoxy-3,3-dimethylchroman-4-yl)carbamate] | 0.62 | 2.4 | 
20 | CC1(NC(=O)O[C@@H]2CN3CCC2CC3)CCOc2cc(-c3cccc(C(F)(F)F)c3)ccc21 (stereo partly drawn) [Example 305, (S)-quinuclidin-3-yl (4-methyl-7-(3-(trifluoromethyl)phenyl)chroman-4-yl)carbamate] | 0.7 | 5.4 | 
21 | CC(C)Oc1ccc(F)c(-c2ccc3c(c2)OCC(C)(C)C3NC(=O)O[C@@H]2CN3CCC2CC3)c1 (stereo partly drawn) [Example 135, (S)-quinuclidin-3-yl (7-(2-fluoro-5-isopropoxyphenyl)-3,3-dimethylchroman-4-yl)carbamate] | 0.44 | 3.46 | 
22 | CC1(C)COc2cc(-c3ccc(F)c(F)c3)ccc2C1NC(=O)O[C@@H]1CN2CCC1CC2 (stereo partly drawn) [Example 238, (S)-quinuclidin-3-yl (7-(3,4-difluorophenyl)-3,3-dimethylchroman-4-yl)carbamate] | 0.47 | 5.9 | 
23 | CC1(C)COc2cc(-c3cccc4cccnc34)ccc2C1NC(=O)O[C@@H]1CN2CCC1CC2 (stereo partly drawn) [Example 165, (S)-quinuclidin-3-yl (3,3-dimethyl-7-(quinolin-8-yl)chroman-4-yl)carbamate] | 0.82 | 0.66 | 
24 | COc1ccc(-c2ccc3c(c2)OCC(C)(C)C3NC(=O)O[C@@H]2CN3CCC2CC3)cc1C(F)(F)F (stereo partly drawn) [Example 210, (S)-quinuclidin-3-yl (7-(4-methoxy-3-(trifluoromethyl)phenyl)-3,3-dimethylchroman-4-yl)carbamate] | 1.57 |  | 18
25 | O=C(NC1CCOc2ccc(-c3ccc(OC(F)(F)F)cc3)cc21)O[C@@H]1CN2CCC1CC2 (stereo partly drawn) [Example 94, (S)-quinuclidin-3-yl (6-(4-(trifluoromethoxy)phenyl)chroman-4-yl)carbamate] | 8.13 | 408 | 
26 | COc1ccc(-c2ccc3c(c2)OCC(C)(C)C3NC(=O)O[C@@H]2CN3CCC2CC3)c(OC)c1 (stereo partly drawn) [Example 125, (S)-quinuclidin-3-yl (7-(2,4-dimethoxyphenyl)-3,3-dimethylchroman-4-yl)carbamate] | 0.86 | 3.85 | 
27 | CN(C)c1cc(-c2ccc3c(c2)OCC(C)(C)C3NC(=O)O[C@@H]2CN3CCC2CC3)ccc1F (stereo partly drawn) [Example 171, (S)-quinuclidin-3-yl (7-(3-(dimethylamino)-4-fluorophenyl)-3,3-dimethylchroman-4-yl)carbamate] | 0.79 | 5.23 | 
28 | CC1(C)COc2cc(-c3ccc(F)c(C(F)(F)F)c3)ccc2C1NC(=O)O[C@@H]1CN2CCC1CC2 (stereo partly drawn) [Example 175, (S)-quinuclidin-3-yl (7-(4-fluoro-3-(trifluoromethyl)phenyl)-3,3-dimethylchroman-4-yl)carbamate] | 0.71 | 2.2 | 
29 | CC1(C)COc2cc(-c3ccc(-c4ccon4)cc3)ccc2C1NC(=O)O[C@@H]1CN2CCC1CC2 (stereo partly drawn) [Example 259, (S)-quinuclidin-3-yl (7-(4-(isoxazol-3-yl)phenyl)-3,3-dimethylchroman-4-yl)carbamate] | 1.14 | 6.9 | 
30 | O=C(NC1CCOc2cc(-c3ccc4c(c3)COC4)ccc21)O[C@@H]1CN2CCC1CC2 (stereo partly drawn) [Example 61, (S)-quinuclidin-3-yl (7-(1,3-dihydroisobenzofuran-5-yl)chroman-4-yl)carbamate] | 1.36 | 40.1 | 
31 | CC(C)(C)c1cccc(-c2ccc3c(c2)OCC(C)(C)C3NC(=O)O[C@@H]2CN3CCC2CC3)c1 (stereo partly drawn) [Example 152, (S)-quinuclidin-3-yl (7-(3-(tert-butyl)phenyl)-3,3-dimethylchroman-4-yl)carbamate] | 0.91 | 0.22 | 
32 | O=C(NC1CCOc2cc(-c3cc(Cl)cc(C(F)(F)F)c3)ccc21)O[C@@H]1CN2CCC1CC2 (stereo partly drawn) [Example 34, (S)-quinuclidin-3-yl (7-(3-chloro-5-(trifluoromethyl)phenyl)chroman-4-yl)carbamate] | 1.97 | 5.97 | 
